Reference: EP2948433B1, “ATGLISTATIN AS LIPASE INHIBITOR” (Technische Universität Graz, priority 2013, dated 2014)

Tests used:
murine MGL = molecular target: T1, murine MGL (Mus musculus, UniProt O35678); experiment: MG hydrolase activity, purified MGL, rac-1-(3)-oleoylglycerol substrate; format: biochemical; conditions: Fig. 2C
T1 construct: made in house; host or cells: E. coli, purified
T1 sequence (O35678 1-303): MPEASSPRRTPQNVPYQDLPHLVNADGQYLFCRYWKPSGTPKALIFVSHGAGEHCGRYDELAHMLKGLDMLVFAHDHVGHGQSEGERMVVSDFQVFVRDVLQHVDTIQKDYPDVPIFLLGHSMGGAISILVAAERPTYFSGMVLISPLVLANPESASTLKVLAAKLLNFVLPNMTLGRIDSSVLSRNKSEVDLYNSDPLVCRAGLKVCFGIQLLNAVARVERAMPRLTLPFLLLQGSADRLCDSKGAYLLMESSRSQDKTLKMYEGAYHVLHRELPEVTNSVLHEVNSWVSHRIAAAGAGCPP
Protocol: (§1) • Figure 1. Structure of compounds 1 to 3 (reference) and compound 4 (atglistatin) and effect on ATGL activity. For determination of lipase activity, lysates of E. coli overexpressing recombinant strep-tagged ATGL and CGI-58 were incubated with a substrate containing radiolabeled [9,10-3H(N)]-triolein. Subsequently, FA were extracted and quantified by liquid scintillation counting. Lysates of cells expressing empty vector were set as blank. Inhibitors were solubilized in DMSO and added at the indicated concentrations. DMSO alone was used as negative control. (A) Structure and IC50 values of compounds 1-4. (B) Dose-dependent inhibition of ATGL in the presence of compound 3 and 4. […] (C) Lineweaver-Burk plots for kinetic analysis of ATGL inhibition. Experiments were performed at varying concentrations of substrate (0.05 - 3 mM) in presence and absence of compound 4 (Atglistatin). […] Lipase activity of ATGL, HSL, lipoprotein lipase, and pancreatic lipase was determined using triolein as substrate. MGL activity was detected in the presence of rac-(1,3)-monooleoylglycerol as substrate. […] The release of FA (A) and glycerol (B) in the media was determined using commercial kits. […] At the indicated timepoints blood was taken retroorbitally and plasma parameters were measured using commercial kits. […] 8 h after gavage blood was taken retroorbitally and plasma parameters were measured using commercial kits. […]

3T3-L1 adipocytes = experiment: Forskolin-stimulated lipolysis of differentiated 3T3-L1 adipocytes; format: cell-based, mouse; conditions: 10 µM forskolin-stimulated, dose dependent (0-50 µM)
Protocol: as §1

[1] = Tissue TG content after oral gavage in fasted mice; format: in vivo, C57BI6 mice
Protocol: Animals. Mice (C57BI/6J) were maintained on a regular light-dark cycle (14 hours light, 10 hours dark) and kept on a standard laboratory chow diet (4.5% wt/wt fat, Sniff GMBH Germany). Maintenance, handling, and tissue collection from mice has been approved by the Austrian Federal Ministry of Science and Research Education and by the ethics committee of the University of Graz. Atglistatin was orally administrated by gavage of 200 µl olive oil containing Atglistatin.
Determination of tissue TG content. For tissue collection mice were euthanized by cervical dislocation. Subsequently, tissues were excised and snap frozen. After homogenisation in buffer A without DTT, TG was measured using TG reagent (Thermo Electron Corp., Victoria, Australia).
Table 1. Inhibition of lipolysis in vivo. C57BI6 mice were fasted overnight and received an oral gavage containing 200 µmol/kg Atglistatin dissolved in olive oil, or olive oil as control. After 8 h blood was taken retroorbitally and mice were sacrificed. (A) Plasma parameters were measured using commercial kits. (B) Tissue triglyceride (TG) and protein levels were determined in whole tissue lysates and are presented as TG (nmol) per protein (mg). Data are presented as mean + S.D. (*, p < 0.05 **, p < 0.01; ***, p < 0.001). n = 7

In the case of `CN(C)C(=O)Nc1cccc(-c2ccc(N(C)C)cc2)c1` [Atglistatin, atglistatin], the “effect on MGL activity” value (murine MGL) is reported as “only minor effects”, the “inhibition of FA release” value (3T3-L1 adipocytes) is reported as “almost complete inhibition” and the “inhibition of glycerol release” value (3T3-L1 adipocytes) is reported as ~90%. For the same molecule, the “Tissue triglyceride (TG), skeletal muscle” value ([1]; 200 µmol/kg oral gavage, after 8 h, mean ± S.D., n = 7) was 99 ± 13 nmol TG /mg protein and the “accumulation of TG in cardiac muscle and other tissues” value ([1]; mouse, in vivo) was “did not promote the accumulation of TG”.
